Laboratory results reported in patent US9738655B2, “Tetrahydroisoquinolines containing substituted azoles as factor XIa inhibitors” (BRISTOL-MYERS SQUIBB COMPANY, priority 2013, dated 2017).
Counter-ions that a name gives are not always drawn. Like-named read-outs stand apart in the source and are kept apart here.

Columns and labels:
[1] = molecular target: purified human Factor XIa (Homo sapiens (Human), UniProt P03951); assay: Factor XIa enzyme inhibition assay (chromogenic substrate S-2366)
[2] = molecular target: purified human plasma kallikrein (Homo sapiens (Human), UniProt P03952); assay: Plasma kallikrein enzyme inhibition assay (chromogenic substrate S-2302); type: biochemical
[3] = read-out: Factor XIa Ki, measured at 25° C.
[4] = measured at 25° C. (no asterisk)

Sequence of purified human plasma kallikrein (P03952 391-638): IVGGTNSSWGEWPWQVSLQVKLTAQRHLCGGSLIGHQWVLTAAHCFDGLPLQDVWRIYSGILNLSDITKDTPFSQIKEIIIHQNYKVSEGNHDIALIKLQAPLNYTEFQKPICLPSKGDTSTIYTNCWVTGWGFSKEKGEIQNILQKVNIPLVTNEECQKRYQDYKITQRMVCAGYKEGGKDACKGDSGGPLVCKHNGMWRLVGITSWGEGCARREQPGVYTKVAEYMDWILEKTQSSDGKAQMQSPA
Sequence of purified human plasma kallikrein (P03952 20-390 partner): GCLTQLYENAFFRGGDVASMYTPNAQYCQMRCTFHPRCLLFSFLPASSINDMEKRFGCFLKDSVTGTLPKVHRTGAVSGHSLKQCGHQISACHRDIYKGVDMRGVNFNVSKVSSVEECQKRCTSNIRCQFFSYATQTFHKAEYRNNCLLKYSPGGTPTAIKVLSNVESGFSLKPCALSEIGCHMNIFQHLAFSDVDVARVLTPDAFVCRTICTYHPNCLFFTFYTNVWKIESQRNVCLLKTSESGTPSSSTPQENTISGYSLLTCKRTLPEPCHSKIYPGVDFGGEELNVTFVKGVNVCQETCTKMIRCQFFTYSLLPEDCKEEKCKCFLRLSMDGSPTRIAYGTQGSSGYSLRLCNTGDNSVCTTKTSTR
Sequence of purified human Factor XIa (P03951 388-625): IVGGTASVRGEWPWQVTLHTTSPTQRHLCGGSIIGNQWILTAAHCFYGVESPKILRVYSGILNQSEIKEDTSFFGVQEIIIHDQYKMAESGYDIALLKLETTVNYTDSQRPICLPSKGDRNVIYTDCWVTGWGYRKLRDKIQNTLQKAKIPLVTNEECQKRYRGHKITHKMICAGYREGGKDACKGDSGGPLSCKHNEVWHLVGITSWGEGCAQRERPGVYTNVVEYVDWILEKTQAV
Sequence of purified human Factor XIa (P03951 19-387 partner): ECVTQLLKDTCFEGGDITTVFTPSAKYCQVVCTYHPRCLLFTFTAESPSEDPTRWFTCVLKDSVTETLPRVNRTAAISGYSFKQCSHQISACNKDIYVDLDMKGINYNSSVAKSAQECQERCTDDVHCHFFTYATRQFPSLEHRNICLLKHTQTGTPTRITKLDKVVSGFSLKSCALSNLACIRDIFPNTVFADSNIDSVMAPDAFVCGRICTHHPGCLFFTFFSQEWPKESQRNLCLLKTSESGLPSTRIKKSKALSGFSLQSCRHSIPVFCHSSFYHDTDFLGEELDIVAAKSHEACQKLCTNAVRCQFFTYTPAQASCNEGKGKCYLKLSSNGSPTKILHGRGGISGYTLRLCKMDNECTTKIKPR

Row | Ki [1, 3] [nM] | Ki [2, 4] [nM] | Ki ([2]; measured at 37° C. (*)) [nM] | SMILES | other results
1 | 62.7 | 316 | – | CO[C@@H]1CCN(c2cccc3c2CCN(C(=O)[C@H]2CC(c4cccc(Cl)c4F)=NO2)[C@H]3C(=O)Nc2ccc(C(=O)O)cc2)C1 [Example 299, 4-((R)-2-((R)-3-(3-chloro-2-fluorophenyl)-4,5-dihydroisoxazole-5-carbonyl)-5-((R)-3-methoxypyrrolidin-1-yl)-1,2,3,4-tetrahydroisoquinoline-1-carboxamido)benzoic acid, TFA salt] | –
2 | 39.7 | – | 2370 | COC1CCN(c2cccc3c2CCN(C(=O)c2nnn(-c4cccc(Cl)c4F)c2C)C3C(=O)Nc2ccc(-c3ncc[nH]3)cc2)CC1 (centres unmarked) [Example 140, N-(4-(1H-Imidazol-2-yl)phenyl)-2-(1-(3-chloro-2-fluorophenyl)-5-methyl-1H-1,2,3-triazole-4-carbonyl)-5-(4-methoxypiperidin-1-yl)-1,2,3,4-tetrahydroisoquinoline-1-carboxamide, 2 TFA salt] | –
3 | < 5 | 0.52 | – | CN1CCN(c2cccc3c2CCN(C(=O)c2cn(-c4cccc(Cl)c4F)nn2)C3C(=O)Nc2ccc(C(=O)O)cc2)CC1 (centres unmarked) [Example 211, 4-(2-(1-(3-chloro-2-fluorophenyl)-1H-1,2,3-triazole-4-carbonyl)-5-(4-methylpiperazin-1-yl)-1,2,3,4-tetrahydroisoquinoline-1-carboxamido)benzoic acid, 2 TFA salt] | –
4 | < 5 | 1.69 | – | CN(C)C1CCN(c2cccc3c2CCN(C(=O)c2cn(-c4cccc(Cl)c4F)nn2)C3C(=O)Nc2ccc(-c3nnn[nH]3)cc2)CC1 (centres unmarked) [Example 105, N-(4-(1H-Tetrazol-5-yl)phenyl)-2-(1-(3-chloro-2-fluorophenyl)-1H-1,2,3-triazole-4-carbonyl)-5-(4-(dimethylamino)piperidin-1-yl)-1,2,3,4-tetrahydroisoquinoline-1-carboxamide, bis-TFA salt] | –
5 | 58.9 | – | 1200 | COC(=O)c1ccc(NC(=O)[C@H]2c3cccc(-c4cncnc4)c3CCN2C(=O)[C@H]2CC(c3cccc(Cl)c3F)=NO2)cc1 [Example 29, Methyl 4-((R)-2-((R)-3-(3-chloro-2-fluorophenyl)-4,5-dihydroisoxazole-5-carbonyl)-5-(pyrimidin-5-yl)-1,2,3,4-tetrahydroisoquinoline-1-carboxamido)benzoate] | –
6 | < 5 | 20.7 | – | O=C(O)c1ccc(NC(=O)C2c3cccc(N4CCCCC4=O)c3CCN2C(=O)c2cn(-c3cccc(Cl)c3F)nn2)cc1 (centres unmarked) [Example 81, 4-(2-(1-(3-chloro-2-fluorophenyl)-1H-1,2,3-triazole-4-carbonyl)-5-(2-oxopiperidin-1-yl)-1,2,3,4-tetrahydroisoquinoline-1-carboxamido)benzoic acid] | –
7 | – | – | – | COC1CCN(c2cccc3c2CCN(C(=O)C2CC(=O)N(c4cccc(Cl)c4F)C2)C3C(=O)Nc2ccc(C(=O)O)cc2)CC1 (centres unmarked) [Example 260, 4-(2-(1-(3-chloro-2-fluorophenyl)-5-oxopyrrolidine-3-carbonyl)-5-(4-methoxypiperidin-1-yl)-1,2,3,4-tetrahydroisoquinoline-1-carboxamido)benzoic acid, TFA salt] | Ki ([1]; read-out: Factor XIa Ki, measured at 25° C., TFA salt): 2460 nM; Ki ([2]; measured at 25° C. (no asterisk), TFA salt): 4750 nM
8 | 158 | 124 | – | CN1CCN(c2cccc3c2CCN(C(=O)c2cncc(-c4cccc(Cl)c4)c2)C3C(=O)Nc2ccc(C(=O)O)cc2)CC1 (centres unmarked) [Example 320, 4-(2-(5-(3-Chlorophenyl)nicotinoyl)-5-(4-methylpiperazin-1-yl)-1,2,3,4-tetrahydroisoquinoline-1-carboxamido)benzoic acid, 2 TFA salt] | –
9 | < 5 | 2.46 | – | O=C(O)c1ccc(NC(=O)C2c3cccc(-c4ccc5cn[nH]c5c4)c3CCN2C(=O)c2cn(-c3cccc(Cl)c3F)nn2)cc1 (centres unmarked) [Example 161, 4-(2-(1-(3-chloro-2-fluorophenyl)-1H-1,2,3-triazole-4-carbonyl)-5-(1H-indazol-6-yl)-1,2,3,4-tetrahydroisoquinoline-1-carboxamido)benzoic acid] | –
10 | – | 178 | – | COC1CCN(c2cccc3c2CCN(C(=O)c2cc(-c4c(F)ccc(Cl)c4F)no2)C3C(=O)Nc2ccc(C(=O)O)cc2)CC1 (racemic) [Example 265, 4-(2-(3-(3-chloro-2,6-difluorophenyl)isoxazole-5-carbonyl)-5-(4-methoxypiperidin-1-yl)-1,2,3,4-tetrahydroisoquinoline-1-carboxamido)benzoic acid, TFA salt] | Ki [1]: 13.2 nM
11 | – | 11.8 | – | COc1cccc2c1CCN(C(=O)c1cn(-c3cccc(Cl)c3F)nn1)C2C(=O)Nc1ccc(C(=O)O)cc1 (racemic) [Example 275, 4-(2-(1-(3-chloro-2-fluoroplienyl)-1H-1,2,3-triazole-4-carbonyl)-5-methoxy-1,2,3,4-tetrahydroisoquinoline-1-carboxamido)benzoic acid, TFA salt] | Ki [1]: 10.7 nM
12 | < 5 | 7.58 | – | CN1CCC2(CCN(c3cccc4c3CCN(C(=O)c3cn(-c5cccc(Cl)c5F)nn3)C4C(=O)Nc3ccc(C(=O)O)cc3)CC2)C1=O (centres unmarked) [Example 106, 4-(2-(1-(3-Chloro-2-fluorophenyl)-1H-1,2,3-triazole-4-carbonyl)-5-(2-methyl-1-oxo-2,8-diazaspiro[4.5]decan-8-yl)-1,2,3,4-tetrahydroisoquinoline-1-carboxamido)benzoic acid, TFA salt] | –
13 | < 5 | 4.7 | – | CC(C)c1nnc2n1CCN(c1cccc3c1CCN(C(=O)c1cn(-c4cccc(Cl)c4F)nn1)C3C(=O)Nc1ccc(C(=O)O)cc1)C2 (centres unmarked) [Example 64, 4-(2-(1-(3-chloro-2-fluorophenyl)-1H-1,2,3-triazole-4-carbonyl)-5-(3-isopropyl-5,6-dihydro-[1,2,4]triazolo[4,3-a]pyrazin-7(8H)-yl)-1,2,3,4-tetrahydroisoquinoline-1-carboxamido)benzoic acid, TFA salt] | –
14 | < 5 | – | 68.2 | Cn1ncnc1-c1cccc2c1CCN(C(=O)c1cn(-c3cccc(Cl)c3F)nn1)C2C(=O)Nc1ccc(C(=O)O)cc1 (centres unmarked) [Example 245, 4-(2-(1-(3-Chloro-2-fluorophenyl)-1H-1,2,3-triazole-4-carbonyl)-5-(1-methyl-1H-1,2,4-triazol-5-yl)-1,2,3,4-tetrahydroisoquinoline-1-carboxamido)benzoic acid, TFA salt] | –
15 | < 5 | – | 29.7 | Cn1cnc(-c2cccc3c2CCN(C(=O)c2cn(-c4cccc(Cl)c4F)nn2)C3C(=O)Nc2ccc(C(=O)O)cc2)c1 (centres unmarked) [Example 246, 4-(2-(1-(3-Chloro-2-fluorophenyl)-1H-1,2,3-triazole-4-carbonyl)-5-(1-methyl-1H-imidazol-4-yl)-1,2,3,4-tetrahydroisoquinoline-1-carboxamido)benzoic acid, TFA salt] | –

Row | SMILES | Ki [1, 3] [nM] | Ki [2, 4] [nM] | Ki ([2]; measured at 37° C. (*)) [nM] | other results
16 | O=C(NC12CCC(C(=O)O)(CC1)CC2)[C@@H]1c2cccc(-c3cncnc3)c2CCN1C(=O)c1cn(-c2cccc(Cl)c2F)nn1 (single isomer, unassigned; enantiomer a) [Example 144, 4-(2-{[1-(3-Chloro-2-fluorophenyl)-1H-1,2,3-triazol-4-yl]carbonyl}-5-(pyrimidin-5-yl)-1,2,3,4-tetrahydroisoquinoline-1-amido)bicyclo[2.2.2]octane-1-carboxylic acid, 1 TFA (enantiomer A)] | 3030 | – | 11600 | –
